Reference: ChEMBL document CHEMBL3734659, “Identification of tris-(phenylalkyl)amines as new selective h5-HT2Breceptor antagonists” (Medchemcomm, 2015)
Active and inactive are the calls of the source. The calls are words filed in the database; no cut-off is given here.

Tests used:
[1] = target: T1, 5-hydroxytryptamine receptor 2B (Homo sapiens, UniProt P41595); assay: Antagonist activity at human recombinant 5-HT2B receptor expressed in Flp-In HEK cells in the presence of agonist preincubated for 10 mins by FLIPR based calcium mobilization assay; assay type: functional, cell-based, HEK293
[2] = target: 5-hydroxytryptamine receptor 7 (Homo sapiens, UniProt P34969); assay: Displacement of [3H]LSD from human recombinant 5-HT7A receptor stably expressed in HEKT cell membrane after 90 mins by scintillation counting method; assay type: cell membranes
Rattus norvegicus [3] = species: Rattus norvegicus; assay: Displacement of [3H]Flunitrazepam from rat brain BZP after 90 mins by scintillation counting method
[4] = target: T2, 5-hydroxytryptamine receptor 2C (Homo sapiens) (UniProt P28335); assay: Agonist activity at human recombinant 5-HT2C receptor expressed in Flp-In HEK cells preincubated for 10 mins by FLIPR based calcium mobilization assay; assay type: functional, cell-based; conditions: HEK293
T2 sequence (whole entry): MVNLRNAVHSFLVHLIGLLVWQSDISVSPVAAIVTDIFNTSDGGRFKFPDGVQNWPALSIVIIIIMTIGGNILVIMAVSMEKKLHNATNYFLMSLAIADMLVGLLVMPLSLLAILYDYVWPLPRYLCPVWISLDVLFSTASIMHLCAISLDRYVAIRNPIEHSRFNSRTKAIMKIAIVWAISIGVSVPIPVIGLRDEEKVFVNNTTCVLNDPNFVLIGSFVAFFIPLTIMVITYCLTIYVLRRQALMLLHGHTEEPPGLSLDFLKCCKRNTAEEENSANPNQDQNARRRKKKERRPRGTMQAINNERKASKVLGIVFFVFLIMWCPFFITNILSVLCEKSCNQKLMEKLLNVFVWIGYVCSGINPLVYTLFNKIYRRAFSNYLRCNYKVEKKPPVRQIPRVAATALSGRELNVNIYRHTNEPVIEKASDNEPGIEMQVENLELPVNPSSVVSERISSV

[5] = target: Delta-type opioid receptor (Homo sapiens) (UniProt P41143); assay: Displacement of [3H]DADLE from human delta-opioid receptor stably expressed in HEK cell membrane after 90 mins by scintillation counting method; assay type: cell membranes; conditions: HEK293
[6] = target: T1, 5-hydroxytryptamine receptor 2B; assay: Displacement of [3H]LSD from human recombinant 5-HT2B receptor stably expressed in HEK cell membrane at 10 uM after 90 mins by scintillation counting method; assay type: cell membranes; conditions: HEK293
[7] = target: Muscarinic acetylcholine receptor M1 (Homo sapiens) (UniProt P11229); assay: Displacement of [3H]QNB from human Muscarinic acetylcholine M1 receptor stably expressed in CHO cell after 90 mins by scintillation counting method; assay type: cell-based
[8] = target: T2, 5-hydroxytryptamine receptor 2C (Homo sapiens); assay: Displacement of [3H]mesulergine from human recombinant 5-HT2C receptor expressed in Flp-IN HEK cell membrane at 10 uM after 90 mins by scintillation counting method; assay type: cell membranes; conditions: HEK293
[9] = target: Muscarinic acetylcholine receptor M3 (Homo sapiens) (UniProt P20309); assay: Displacement of [3H]NMS from human Muscarinic acetylcholine M3 receptor stably expressed in CHO cell after 90 mins by scintillation counting method; assay type: cell-based
HEK293 = assay: Selectivity ratio of Ki for human recombinant 5-HT2A receptor expressed in HEKT cell membrane to Ki for human recombinant 5-HT2B receptor stably expressed in HEK cells; assay type: cell-based
Histamine H1 receptor = Histamine H1 receptor (Homo sapiens, UniProt P35367); assay: Displacement of [3H]Pyrilamine from human H1 Histamine receptors stably expressed in HEK cell membrane after 90 mins by scintillation counting method; assay type: cell membranes, HEK293
[10] = target: T1, 5-hydroxytryptamine receptor 2B; assay: […] antagonist activity at human recombinant 5-HT2B receptor stably expressed in HEK cell membrane by schild plot method; design: species or system HEK293; conditions: read-out: pA2 (converted)
Rattus norvegicus [11] = species: Rattus norvegicus; assay: Displacement of [3H]Muscimol from rat brain Gamma-aminobutyric acid type-A receptor after 90 mins by scintillation counting method
[12] = target: Muscarinic acetylcholine receptor M1 (Homo sapiens) (UniProt P11229); assay: Displacement of [3H]NMS from human Muscarinic acetylcholine M1 receptor stably expressed in CHO cell after 90 mins by scintillation counting method; assay type: cell-based
[13] = target: Kappa-type opioid receptor (Homo sapiens, UniProt P41145); assay: Displacement of [3H]U69593 from human kappa-opioid receptor stably expressed in HEK cell membrane after 90 mins by scintillation counting method; assay type: cell membranes, HEK293
[14] = target: Alpha-1D adrenergic receptor (Homo sapiens, UniProt P25100); assay: Displacement of [3H]Prazosin from human recombinant alpha 1D receptor after 90 mins by scintillation counting method
[15] = target: Sodium-dependent dopamine transporter (Homo sapiens, UniProt Q01959); assay: Displacement of [3H]WIN35428 from human dopamine transporter stably expressed in HEK293 cells after 30 mins by neurotransmitter transporter uptake assay; assay type: cell-based
[16] = target: Histamine H3 receptor (Homo sapiens) (UniProt Q9Y5N1); assay: Displacement of [3H]alpha-methylhistamine from human H3 Histamine receptors expressed in HEK Flp-In cell after 90 mins by scintillation counting method; assay type: cell-based; conditions: HEK293
[17] = target: Alpha-2C adrenergic receptor (Homo sapiens, UniProt P18825); assay: Displacement of [3H]Rauwolscine from human recombinant alpha 2C receptor stably expressed in MDCK cells after 90 mins by scintillation counting method; assay type: cell-based
[18] = target: 5-hydroxytryptamine receptor 1E (Homo sapiens) (UniProt P28566); assay: Displacement of [3H]5-CT from human recombinant 5-HT1E receptor stably expressed in HEK cell membrane after 90 mins by scintillation counting method; assay type: cell membranes; conditions: HEK293
[19] = target: 5-hydroxytryptamine receptor 5A (Homo sapiens) (UniProt P47898); assay: Displacement of [3H]LSD from human recombinant 5-HT5A receptor expressed in Flp-In CHO cell membrane after 90 mins by scintillation counting method; assay type: cell membranes
[20] = target: 5-hydroxytryptamine receptor 1A (Homo sapiens, UniProt P08908); assay: Displacement of [3H]Way100635 from human recombinant 5-HT1A receptor stably expressed in CHO cell membrane after 90 mins by scintillation counting method; assay type: cell membranes
[21] = target: T3, 5-hydroxytryptamine receptor 2C (Homo sapiens, UniProt P28335); assay: Antagonist activity at human recombinant 5-HT2C receptor expressed in Flp-In HEK cells in the presence of agonist preincubated for 10 mins by FLIPR based calcium mobilization assay; assay type: functional, cell-based, HEK293
T3 sequence (P28335 whole entry): T2 sequence (whole entry)

[22] = Displacement of [3H]DTG from sigma 2 receptor stable expressed in rat PC12 cells after 90 mins by scintillation counting method; assay type: cell-based; conditions: pc-12
Mu-type opioid receptor = Mu-type opioid receptor (Homo sapiens, UniProt P35372); assay: Displacement of [3H]DAMGO from human mu-opioid receptor stably expressed in HEK cell membrane after 90 mins by scintillation counting method; assay type: cell membranes, HEK293
[23] = target: D(1B) dopamine receptor (Homo sapiens) (UniProt P21918); assay: Displacement of [3H]SCH23390 from human recombinant dopamine D5 receptor expressed in HEKT cell membrane after 90 mins by scintillation counting method; assay type: cell membranes
[24] = target: Muscarinic acetylcholine receptor M5 (Homo sapiens) (UniProt P08912); assay: Displacement of [3H]QNB from human Muscarinic acetylcholine M5 receptor stably expressed in CHO cell after 90 mins by scintillation counting method; assay type: cell-based
[25] = target: 5-hydroxytryptamine receptor 1D (Homo sapiens, UniProt P28221); assay: Displacement of [3H]5-CT from human recombinant 5-HT1D receptor expressed in HEKT cell membrane after 90 mins by scintillation counting method; assay type: cell membranes
[26] = target: 5-hydroxytryptamine receptor 2A (Homo sapiens, UniProt P28223); assay: Displacement of [3H]ketanserin from human recombinant 5-HT2A receptor expressed in HEKT cell membrane at 10 uM after 90 mins by scintillation counting method; assay type: cell membranes

T1 sequence (P41595 whole entry): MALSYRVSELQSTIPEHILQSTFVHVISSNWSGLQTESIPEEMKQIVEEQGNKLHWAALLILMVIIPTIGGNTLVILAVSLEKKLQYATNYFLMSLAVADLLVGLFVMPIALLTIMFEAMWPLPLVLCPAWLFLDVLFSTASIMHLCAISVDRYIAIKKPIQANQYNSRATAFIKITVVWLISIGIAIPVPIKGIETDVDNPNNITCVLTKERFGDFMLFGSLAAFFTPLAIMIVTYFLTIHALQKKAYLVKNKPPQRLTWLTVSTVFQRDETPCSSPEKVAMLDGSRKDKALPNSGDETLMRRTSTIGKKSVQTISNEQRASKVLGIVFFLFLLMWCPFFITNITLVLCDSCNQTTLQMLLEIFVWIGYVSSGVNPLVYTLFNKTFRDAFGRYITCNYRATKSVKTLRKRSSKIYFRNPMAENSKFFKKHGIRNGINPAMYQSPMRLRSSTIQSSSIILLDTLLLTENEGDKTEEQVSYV
Muscarinic acetylcholine receptor M1 (Homo sapiens), sequence (P11229 whole entry): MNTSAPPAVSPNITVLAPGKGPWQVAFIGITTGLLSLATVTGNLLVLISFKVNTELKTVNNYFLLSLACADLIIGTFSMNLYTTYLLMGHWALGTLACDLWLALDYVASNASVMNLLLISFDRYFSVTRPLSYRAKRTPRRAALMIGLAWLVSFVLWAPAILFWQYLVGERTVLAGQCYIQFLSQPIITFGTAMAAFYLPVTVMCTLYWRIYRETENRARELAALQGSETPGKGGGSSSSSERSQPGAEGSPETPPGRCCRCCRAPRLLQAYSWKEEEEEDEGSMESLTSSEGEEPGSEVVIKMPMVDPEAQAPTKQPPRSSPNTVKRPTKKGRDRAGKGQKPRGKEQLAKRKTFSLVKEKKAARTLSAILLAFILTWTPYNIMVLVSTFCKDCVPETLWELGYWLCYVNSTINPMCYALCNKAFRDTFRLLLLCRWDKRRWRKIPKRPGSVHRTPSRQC
Delta-type opioid receptor (Homo sapiens), sequence (P41143 whole entry): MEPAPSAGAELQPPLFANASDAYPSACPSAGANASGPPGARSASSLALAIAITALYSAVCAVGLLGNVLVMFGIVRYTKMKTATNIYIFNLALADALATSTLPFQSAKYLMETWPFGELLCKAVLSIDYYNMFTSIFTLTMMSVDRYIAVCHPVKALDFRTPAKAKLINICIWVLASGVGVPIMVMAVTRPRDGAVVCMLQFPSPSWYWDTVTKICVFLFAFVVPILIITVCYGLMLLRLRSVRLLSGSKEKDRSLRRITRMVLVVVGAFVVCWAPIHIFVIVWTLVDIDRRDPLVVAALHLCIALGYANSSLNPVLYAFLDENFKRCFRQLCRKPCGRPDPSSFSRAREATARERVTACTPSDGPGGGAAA
D(1B) dopamine receptor (Homo sapiens), sequence (P21918 whole entry): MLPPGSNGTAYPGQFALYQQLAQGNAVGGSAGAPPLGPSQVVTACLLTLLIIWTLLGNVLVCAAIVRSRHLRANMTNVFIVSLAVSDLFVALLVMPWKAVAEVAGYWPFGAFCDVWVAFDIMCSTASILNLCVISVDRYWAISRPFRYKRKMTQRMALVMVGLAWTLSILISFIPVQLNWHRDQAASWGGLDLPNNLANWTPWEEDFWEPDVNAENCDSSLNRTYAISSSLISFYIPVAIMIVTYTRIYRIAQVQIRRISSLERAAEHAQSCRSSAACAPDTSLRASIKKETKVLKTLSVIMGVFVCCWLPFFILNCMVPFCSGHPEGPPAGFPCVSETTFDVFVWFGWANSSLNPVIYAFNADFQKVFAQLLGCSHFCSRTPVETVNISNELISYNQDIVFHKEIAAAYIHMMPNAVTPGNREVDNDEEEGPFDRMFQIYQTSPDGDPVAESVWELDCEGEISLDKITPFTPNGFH
Alpha-1D adrenergic receptor, sequence (P25100 whole entry): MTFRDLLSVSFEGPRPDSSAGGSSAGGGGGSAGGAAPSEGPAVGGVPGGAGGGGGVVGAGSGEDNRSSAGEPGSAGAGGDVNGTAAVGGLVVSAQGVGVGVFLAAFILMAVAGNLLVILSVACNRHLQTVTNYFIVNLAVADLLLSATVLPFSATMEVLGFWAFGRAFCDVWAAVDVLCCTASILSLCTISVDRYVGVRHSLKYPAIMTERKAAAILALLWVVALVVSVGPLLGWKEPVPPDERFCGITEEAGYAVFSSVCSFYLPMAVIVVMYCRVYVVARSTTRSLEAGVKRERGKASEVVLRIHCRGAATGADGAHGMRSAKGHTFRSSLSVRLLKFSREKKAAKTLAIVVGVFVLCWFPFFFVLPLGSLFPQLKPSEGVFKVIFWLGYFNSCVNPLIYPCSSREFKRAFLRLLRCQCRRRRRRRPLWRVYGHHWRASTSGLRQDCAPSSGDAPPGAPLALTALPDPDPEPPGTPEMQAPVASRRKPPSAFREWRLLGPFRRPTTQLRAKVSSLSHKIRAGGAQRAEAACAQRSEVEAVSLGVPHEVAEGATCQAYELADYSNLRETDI
5-hydroxytryptamine receptor 1D, sequence (P28221 whole entry): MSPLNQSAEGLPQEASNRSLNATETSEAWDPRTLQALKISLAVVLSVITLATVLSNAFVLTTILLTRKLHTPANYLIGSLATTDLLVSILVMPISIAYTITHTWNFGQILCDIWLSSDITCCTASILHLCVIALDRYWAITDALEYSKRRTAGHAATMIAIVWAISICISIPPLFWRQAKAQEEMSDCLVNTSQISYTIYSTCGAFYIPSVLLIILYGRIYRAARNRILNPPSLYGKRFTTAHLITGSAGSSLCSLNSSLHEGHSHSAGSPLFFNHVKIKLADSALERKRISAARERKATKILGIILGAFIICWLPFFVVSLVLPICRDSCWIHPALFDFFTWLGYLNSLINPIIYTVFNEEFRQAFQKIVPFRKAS
Histamine H3 receptor (Homo sapiens), sequence (Q9Y5N1 whole entry): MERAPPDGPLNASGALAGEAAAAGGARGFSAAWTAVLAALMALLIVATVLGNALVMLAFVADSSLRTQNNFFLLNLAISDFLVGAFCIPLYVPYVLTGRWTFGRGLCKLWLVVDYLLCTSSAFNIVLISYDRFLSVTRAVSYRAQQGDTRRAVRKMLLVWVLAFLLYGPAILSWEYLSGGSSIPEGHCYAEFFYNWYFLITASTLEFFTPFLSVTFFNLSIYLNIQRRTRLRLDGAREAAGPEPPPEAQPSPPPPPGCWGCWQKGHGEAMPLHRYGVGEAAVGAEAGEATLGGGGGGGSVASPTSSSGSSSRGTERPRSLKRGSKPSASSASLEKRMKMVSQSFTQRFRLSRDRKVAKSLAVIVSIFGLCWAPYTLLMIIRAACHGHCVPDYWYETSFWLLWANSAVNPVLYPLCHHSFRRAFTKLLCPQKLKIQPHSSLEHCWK
5-hydroxytryptamine receptor 1E (Homo sapiens), sequence (P28566 whole entry): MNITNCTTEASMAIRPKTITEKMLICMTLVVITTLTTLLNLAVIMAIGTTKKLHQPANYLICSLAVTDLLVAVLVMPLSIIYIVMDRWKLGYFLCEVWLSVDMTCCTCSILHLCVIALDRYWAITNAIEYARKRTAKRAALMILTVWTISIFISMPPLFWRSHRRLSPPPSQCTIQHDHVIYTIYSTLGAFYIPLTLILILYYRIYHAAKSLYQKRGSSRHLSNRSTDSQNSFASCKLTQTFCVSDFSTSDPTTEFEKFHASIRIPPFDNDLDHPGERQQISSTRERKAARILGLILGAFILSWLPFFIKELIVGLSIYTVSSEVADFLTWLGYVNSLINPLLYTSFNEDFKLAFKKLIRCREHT
Sodium-dependent dopamine transporter, sequence (Q01959 whole entry): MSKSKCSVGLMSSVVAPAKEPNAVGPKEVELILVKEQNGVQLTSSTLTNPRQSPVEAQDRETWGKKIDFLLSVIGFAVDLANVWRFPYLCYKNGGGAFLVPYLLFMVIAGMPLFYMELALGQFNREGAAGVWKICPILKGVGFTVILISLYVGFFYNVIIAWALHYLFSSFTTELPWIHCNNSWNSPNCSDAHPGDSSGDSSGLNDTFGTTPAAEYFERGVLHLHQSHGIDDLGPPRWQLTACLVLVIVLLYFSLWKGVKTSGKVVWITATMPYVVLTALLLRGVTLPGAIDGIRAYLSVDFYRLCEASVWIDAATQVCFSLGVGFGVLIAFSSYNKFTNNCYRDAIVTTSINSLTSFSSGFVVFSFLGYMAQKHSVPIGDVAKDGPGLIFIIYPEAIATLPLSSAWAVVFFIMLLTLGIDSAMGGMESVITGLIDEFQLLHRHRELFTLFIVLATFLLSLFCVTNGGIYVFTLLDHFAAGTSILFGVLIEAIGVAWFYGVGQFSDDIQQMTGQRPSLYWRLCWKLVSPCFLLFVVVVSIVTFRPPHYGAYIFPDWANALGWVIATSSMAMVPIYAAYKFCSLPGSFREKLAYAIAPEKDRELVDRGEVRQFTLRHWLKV
Kappa-type opioid receptor, sequence (P41145 whole entry): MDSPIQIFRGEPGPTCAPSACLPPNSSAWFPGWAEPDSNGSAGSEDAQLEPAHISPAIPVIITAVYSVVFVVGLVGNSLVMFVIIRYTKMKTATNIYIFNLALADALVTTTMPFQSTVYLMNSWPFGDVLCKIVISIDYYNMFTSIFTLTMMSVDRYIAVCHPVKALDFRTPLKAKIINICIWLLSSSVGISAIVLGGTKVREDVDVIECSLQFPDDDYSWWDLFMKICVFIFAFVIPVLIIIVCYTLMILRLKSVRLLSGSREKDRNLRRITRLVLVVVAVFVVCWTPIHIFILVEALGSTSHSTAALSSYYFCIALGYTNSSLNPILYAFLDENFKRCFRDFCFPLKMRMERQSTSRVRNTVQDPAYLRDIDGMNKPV
Mu-type opioid receptor, sequence (P35372 whole entry): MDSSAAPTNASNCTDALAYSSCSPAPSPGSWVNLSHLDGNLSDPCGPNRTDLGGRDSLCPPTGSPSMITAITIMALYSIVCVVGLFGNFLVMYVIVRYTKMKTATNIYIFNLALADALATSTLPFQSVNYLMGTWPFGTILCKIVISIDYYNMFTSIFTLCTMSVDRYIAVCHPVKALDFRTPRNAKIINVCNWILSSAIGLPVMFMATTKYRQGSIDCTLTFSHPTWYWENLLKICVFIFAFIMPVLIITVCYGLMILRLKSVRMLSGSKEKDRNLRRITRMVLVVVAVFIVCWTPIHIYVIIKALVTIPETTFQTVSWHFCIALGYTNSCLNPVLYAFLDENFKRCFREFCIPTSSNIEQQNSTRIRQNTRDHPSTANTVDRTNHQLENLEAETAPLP

IC50 [1]: 794 nM | Ki [2]: 700 nM | Activity (Rattus norvegicus [3]): inactive | Activity [4]: inactive | Activity [5]: inactive | inhibition [6]: > 50% | Activity [7]: inactive | inhibition [8]: > 50% | Activity [9]: inactive | Ki (Histamine H1 receptor): 1300 nM | Kb [10]: 550 nM | Activity (Rattus norvegicus [11]): inactive | Activity [12]: inactive | Ki [13]: 363 nM | Ki [14]: 467 nM | Ki [15]: 498 nM | Activity [16]: inactive | Ki [17]: 429 nM | Activity [18]: inactive | Activity [19]: inactive | Ki [20]: 821 nM | IC50 [21]: 12600 nM | Ki (Mu-type opioid receptor): 341 nM | Activity [23]: inactive | Activity [24]: inactive | Ki [25]: 451 nM | inhibition [26]: > 50%
SMILES: COc1ccc(CCN(CCCc2ccccc2)CCc2ccc3c(c2)OCO3)cc1OC
Ratio Ki (HEK293): 6 | Ki [22]: 242 nM
